# According to US12252493B2, “Imidazo[1,2-c]pyrimidine derivatives as PRC2 inhibitors for treating cancer” (Mirati Therapeutics, Inc., priority 2019, dated 2025):
# Experiments:
# [1] = molecular target: purified human, His-tagged PRC2 complex (Homo sapiens (Human), UniProt O75530); experiment: Hot Spot HMT assay of PRC2 enzymatic activity (tritiated methyl transfer from SAM to core histone); type: biochemical; settings: 10 nM purified PRC2 complex, 0.05 mg/ml core histone H3, 1 uM 3H-SAM, 1 hr at 30° C.; read-out: IC50, Inhibition of PRC2-mediated Enzymatic Activity
# Sequence of purified human, His-tagged PRC2 complex (Q15910 whole entry): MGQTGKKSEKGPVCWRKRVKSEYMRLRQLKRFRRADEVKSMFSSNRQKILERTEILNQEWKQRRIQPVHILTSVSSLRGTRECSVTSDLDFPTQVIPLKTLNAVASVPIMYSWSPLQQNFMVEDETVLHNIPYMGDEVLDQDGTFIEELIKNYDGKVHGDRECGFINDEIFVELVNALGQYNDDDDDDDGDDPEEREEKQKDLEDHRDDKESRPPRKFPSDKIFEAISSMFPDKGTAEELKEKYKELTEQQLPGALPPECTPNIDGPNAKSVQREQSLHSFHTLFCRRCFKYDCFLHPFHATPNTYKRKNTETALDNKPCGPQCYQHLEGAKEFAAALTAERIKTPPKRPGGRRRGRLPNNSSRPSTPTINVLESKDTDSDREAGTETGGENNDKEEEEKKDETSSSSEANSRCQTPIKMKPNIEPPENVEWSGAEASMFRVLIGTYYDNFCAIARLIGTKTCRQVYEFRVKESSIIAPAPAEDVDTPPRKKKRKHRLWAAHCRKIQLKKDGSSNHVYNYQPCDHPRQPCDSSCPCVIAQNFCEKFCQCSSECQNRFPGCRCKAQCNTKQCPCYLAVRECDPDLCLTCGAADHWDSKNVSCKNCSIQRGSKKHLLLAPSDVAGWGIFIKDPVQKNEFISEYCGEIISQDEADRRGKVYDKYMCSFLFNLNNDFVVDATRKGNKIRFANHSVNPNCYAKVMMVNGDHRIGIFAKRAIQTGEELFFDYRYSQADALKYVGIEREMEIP
# Sequence of purified human, His-tagged PRC2 complex (O75530 whole entry): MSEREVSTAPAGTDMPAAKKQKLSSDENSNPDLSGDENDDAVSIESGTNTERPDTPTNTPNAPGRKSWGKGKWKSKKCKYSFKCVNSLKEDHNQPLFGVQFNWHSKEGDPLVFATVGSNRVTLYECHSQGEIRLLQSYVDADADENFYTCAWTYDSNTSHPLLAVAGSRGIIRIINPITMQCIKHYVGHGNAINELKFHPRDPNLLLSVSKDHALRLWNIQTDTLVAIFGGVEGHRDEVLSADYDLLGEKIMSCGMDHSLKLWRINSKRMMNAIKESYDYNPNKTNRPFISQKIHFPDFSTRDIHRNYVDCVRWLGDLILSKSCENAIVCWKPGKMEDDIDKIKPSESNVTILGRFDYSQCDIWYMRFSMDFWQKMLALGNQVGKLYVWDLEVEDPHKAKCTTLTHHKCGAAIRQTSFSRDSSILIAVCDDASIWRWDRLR
# Sequence of purified human, His-tagged PRC2 complex (Q15022 whole entry partner): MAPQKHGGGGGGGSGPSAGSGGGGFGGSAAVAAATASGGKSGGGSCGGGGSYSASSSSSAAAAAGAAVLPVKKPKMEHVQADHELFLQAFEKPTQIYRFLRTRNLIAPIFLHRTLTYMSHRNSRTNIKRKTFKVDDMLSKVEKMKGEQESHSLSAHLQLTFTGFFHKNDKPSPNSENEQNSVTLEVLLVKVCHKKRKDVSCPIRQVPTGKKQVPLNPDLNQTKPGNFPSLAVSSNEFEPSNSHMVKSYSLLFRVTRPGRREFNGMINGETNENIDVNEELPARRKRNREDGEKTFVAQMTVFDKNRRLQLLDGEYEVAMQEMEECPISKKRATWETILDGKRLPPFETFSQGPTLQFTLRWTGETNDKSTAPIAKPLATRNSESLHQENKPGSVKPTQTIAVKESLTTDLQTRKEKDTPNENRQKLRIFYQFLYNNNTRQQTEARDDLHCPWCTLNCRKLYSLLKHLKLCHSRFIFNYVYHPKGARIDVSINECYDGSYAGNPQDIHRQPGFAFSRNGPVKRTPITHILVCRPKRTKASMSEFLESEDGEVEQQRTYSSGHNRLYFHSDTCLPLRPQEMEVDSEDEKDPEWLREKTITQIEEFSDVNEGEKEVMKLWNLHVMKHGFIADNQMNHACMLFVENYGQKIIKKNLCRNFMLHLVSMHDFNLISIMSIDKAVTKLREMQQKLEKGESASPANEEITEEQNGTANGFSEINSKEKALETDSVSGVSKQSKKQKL
# Sequence of purified human, His-tagged PRC2 complex (Q6ZN18 whole entry partner): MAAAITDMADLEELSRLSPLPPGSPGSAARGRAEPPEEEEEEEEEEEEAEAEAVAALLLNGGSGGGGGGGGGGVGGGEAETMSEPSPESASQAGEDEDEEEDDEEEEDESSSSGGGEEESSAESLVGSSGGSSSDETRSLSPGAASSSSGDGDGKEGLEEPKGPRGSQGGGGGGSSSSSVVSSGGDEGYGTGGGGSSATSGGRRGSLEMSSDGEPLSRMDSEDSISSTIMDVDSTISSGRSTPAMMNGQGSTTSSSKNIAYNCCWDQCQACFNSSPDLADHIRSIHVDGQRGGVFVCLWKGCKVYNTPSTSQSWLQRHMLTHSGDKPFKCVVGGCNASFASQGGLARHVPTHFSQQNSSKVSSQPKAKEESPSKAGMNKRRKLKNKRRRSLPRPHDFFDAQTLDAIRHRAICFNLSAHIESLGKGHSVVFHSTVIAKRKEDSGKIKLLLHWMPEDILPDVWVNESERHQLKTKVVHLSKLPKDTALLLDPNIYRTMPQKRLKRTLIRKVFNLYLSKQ
# Sequence of purified human, His-tagged PRC2 complex (Q09028 whole entry partner): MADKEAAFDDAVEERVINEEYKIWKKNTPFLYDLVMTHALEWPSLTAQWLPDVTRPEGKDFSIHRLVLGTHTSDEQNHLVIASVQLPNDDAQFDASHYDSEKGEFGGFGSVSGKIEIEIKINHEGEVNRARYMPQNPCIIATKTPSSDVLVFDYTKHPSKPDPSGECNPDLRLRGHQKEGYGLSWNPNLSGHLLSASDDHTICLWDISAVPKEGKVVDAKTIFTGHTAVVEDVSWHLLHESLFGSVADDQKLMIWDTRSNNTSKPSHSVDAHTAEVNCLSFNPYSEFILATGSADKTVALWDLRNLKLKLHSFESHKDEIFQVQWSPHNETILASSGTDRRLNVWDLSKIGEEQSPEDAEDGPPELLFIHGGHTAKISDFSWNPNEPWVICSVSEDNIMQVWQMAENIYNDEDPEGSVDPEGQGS
# Method: Ten-point dose-response curves for compounds of the present invention were determined using a Hot Spot HMT assay (Reaction Biology Corp; see Horiuchi et al., Assay Drug Dev Technol. (2013) 4: 227-236 doi: 10.1089/adt.2012.480). The assay uses purified human, His-tagged PRC2 complex, including N-terminal His-tagged EZH2 enzyme, N-terminal Flag-tagged embryonic ectoderm development protein (EED), N-terminal His-tagged suppressor of zeste 12 (SUZ12), N-terminal His-tagged AEBP2, and N-terminal His-tagged RbAp48. In this assay, the transfer of the tritiated methyl group from radiolabeled S-adenosyl methionine (SAM) to purified core histone protein by EZH2 is quantitated after filtration to determine the activity of the core PRC2 complex in the presence and absence of compound.
# Briefly, compounds of the present invention were solubilized in DMSO and a series of 10, three-fold serial dilutions were made for each compound in 15% DMSO. The initial starting concentration for the serial dilutions of each compound was 1.0 μM. Control samples lacking compound, EZH2 enzyme or various reaction components also were prepared and processed in parallel with compound test samples. SAH (S-(5-adenosyl)-L-homocysteine) was used as a positive control for assay validation.
# An aliquot of each serial dilution of test compound was added to deep 384 well plate using Acoustic Technology instrument (Echo 550, LabCyte) containing reaction buffer (50 mM Tris-HCl (pH 8.)), 0.01% Brij35, 1 mM EDTA, 1 mM DTT, 1 mM PMSF and 1% DMSO), 10 nM purified PRC2 complex and 0.05 mg/ml core histone H3 in a 5 μl volume. The reaction was mixed gently and then pre-incubated for 20 min at 30° C. The enzymatic reaction was initiated by adding 1 uM S-Adenosyl-L-[methyl ^3H]methionine and incubated for 1 hr at 30° C. After 1 hr, the reaction product was detected using a filter binding method and the amount of tritiated H3 core histone was quantitated using a scintillation counter. The IC50 value for each compound was determined from each 10-point dose-response curve using GraphPad Prism software and the results for exemplary compounds of Formula (I) are shown in Table 5. Key: A=≤250 nM; B=>250 nM—≤500 nM; and C=>500 nM—≤2 μM.
# [2] = test system: Karpas 422 cells expressing mutant EZH2 (Y641N); experiment: Karpas 422 cell viability (Cell Titre Glo) assay; type: cell-based, human; settings: Homo sapiens, CTG viability, time point (Day 4, Day 7 or Day 11) not given, read-out: IC50, Inhibiting Proliferation of Cells Expressing an Activating Mutant Form of EZH2
# Method: Karpas 422 cell line is a human B cell non-Hodgkin's lymphoma cell line established from a patient having DLBCL. This EZH2 heterozygotic cell line expresses a mutant form of EZH2 enzyme (Y641N) that increases histone H3 methylation and this mutation has been implicated in the tumorgenesis of lymphomas, such as DLBCL.
# Karpas 422 cells (PHE cat no., 06101702) were cultured in RPMI medium supplemented with 20% fetal bovine serum and 1% penicillin/1% streptomycin and plated at a density of 1000 cells/90 μl/well in 96 well white assay plates. A dose response curve for compounds of the present invention was determined by adding a 10 μl aliquot of stock solutions of varying concentrations of compounds to the same medium in each well, over a concentration range of 10 μM using 3-fold dilutions to a final concentration of 1.5 nM. The plates were incubated at 37° C. for predetermined time periods, Day 4, Day 7, or Day 11, and the viability of the cells was measured using a CTG assay kit (Cell Titre Glo; Promega cat. no G7573) on Day 4 and Day 7 in accordance with the manufacturer's instructions.
# For the viability assay for the Day 11 plates, the plates were subjected to centrifugation at 1100 rpm for five minutes on Day 7 and the supernatant was removed by aspiration. The cells were resuspended in 90 μl aliquot of the appropriate growth medium lacking the compound followed by addition of 10 μl of a 10× stock of the same compound at the same concentration. The viability of the Day 11 cells was measured using the CTG assay kit described above in accordance with the manufacturer's instructions. The IC50 values for each compound at each predetermined time point were calculated using Graph pad PRISM software and the results are shown in Table 7. Key: A=≤250 nM; B=>250 nM-≤500 nM; C=>500 nM-≤5 μM and N.D.=not determined.
# [3] = test system: PRC2-mediated histone H3 methylation (H3 Lys27 trimethylation) in Pfeiffer cells expressing mutant EZH2 (A677G); experiment: Tri-Methyl Histone H3 (Lys 27) sandwich ELISA in Pfeiffer cells; type: cell-based, human; settings: Homo sapiens; Pfeiffer cells, 96 hours incubation, ELISA; read-out: IC50, Inhibition of EZH2-mediated Histone H3 Trimethylation
# From the text: The Pfeiffer cell line was established from a […] from a patient having metastatic diffuse large B-cell lymphoma (DLBCL). This cell line expresses a mutant form of the EZH2 enzyme (A677G) that results in enhanced EZH2 activity leading to increased methylation of histone H3 Lys27. Increased trimethylation of histone H3 Lys27 is believed to be implicated in tumorgenesis and poor clinical prognosis in lymphomas (McCabe et al., (2012) Nature 492:108-112).
# Inhibition of PRC2-mediated histone H3 methylation by compounds of Formula (I) was measured by ELISA using a Tri-Methyl Histone H3 (Lys 27) Sandwich ELISA Kit (Cell Signaling Tech #7866C) in accordance with the manufacturer's instructions. Briefly, Pfeiffer cells were cultured in RPMI medium supplemented with 10% fetal bovine serum and 1% penicillin and 1% streptomycin in 96 well culture plates at 37° C. to a density of 8000 cells/90 μl/well and the cells were harvested. A series of 3-fold serial dilutions of each test compound of Formula (I) were prepared in RPMI medium and added to the cells at final concentrations ranging from 1 μM to 0.15 nM. The plates were incubated at 37° C. for 96 hours.
# After incubation, the cells were pelleted by centrifugation in a pre-cooled 4° C. rotor at 1,100 rpm for 10 min and the supernatant was removed by aspiration. The cell pellet was resuspended in 55 μl of Lysis Buffer (0.4M HCl) and incubated on ice with periodic shaking for 30 minutes. The lysed cells were subjected to centrifugation at 4,200 rpm for 10 min at 4° C. and the supernatant containing acid-soluble proteins was collected and the remainder discarded. The acid-soluble proteins were brought to a neutral pH by the addition of 20 μl of Neutralization Buffer (1 M Sodium phosphate, dibasic (pH 12.5), 2.5 mM DTT and 1 mM PMSF) and the neutralized lysates were analyzed by ELISA.
# A 65 μl aliquot of each cell lysate was added to a well of a microwell strip, the microwells were sealed using tape and incubated either at 37° C. for two hours or at 4° C. overnight. After incubation, the tape was removed at the microwells were washed four times using 200 μl of 1× Wash Buffer. To each washed microwell, a 100 μl aliquot of an anti-trimethyl histone H3 Lys27 Detection Antibody solution was added and the microwells were incubated at 37° C. for one hour. The Detection Antibody solution was removed by aspiration and the wells were washed four times each using 200 μl of 1× Wash Buffer.
# A 100 μl aliquot of an HRP-linked secondary antibody was added to each well, the wells were sealed with tape and incubated at 37° C. for 30 min. The HRP-linked secondary antibody solution was removed by aspiration and the wells were washed four times using 200 μl of 1× Wash Buffer. A 100 μl aliquot of a TMB substrate was added to each well, the wells were sealed with tape and incubated at 37° C. for 10 min or 25° C. for 30 min. The reaction was stopped by the addition of 100 μl aliquot of a STOP solution and the plate was shaken briefly. The degree of histone H3 trimethylation was determined using a spectrophotometric readout by measuring the absorbance at 450 nm and then calculating the amount of trimethylated histone H3. Key: A=≤250 nM; B=>250 nM-≤500 nM; and C=>500 nM-≤5 μM.
structure (smiles),measurement,setting,value
"Cc1cc(-c2cnc(NCc3c(F)ccc4c3CCO4)n3cc(C(C)N)nc23)ccn1 (centres unmarked) [Example 38, 2-(1-aminoethyl)-N-((5-fluoro-2,3-dihydrobenzofuran-4-yl)methyl)-8-(2-methylpyridin-4-yl)imidazo[1,2-c]pyrimidin-5-amine]",IC50,[1],< 250 nM
same,IC50,[2],< 250 nM
same,IC50,[3],< 250 nM
"Cc1cc(-c2cnc(NCc3c(F)ccc4c3CCO4)n3cc(CN4CC(O)C4)nc23)n(C)n1 [Example 31, 1-((8-(1,3-dimethyl-1H-pyrazol-5-yl)-5-(((5-fluoro-2,3-dihydrobenzofuran-4-yl)methyl)amino)imidazo[1,2-c]pyrimidin-2-yl)methyl)azetidin-3-ol]",IC50,[1],500 to 2000 nM
same,IC50,[2],500 to 5000 nM
same,IC50,[3],500 to 5000 nM
"Cc1cc(-c2cnc(NCc3c(F)ccc4c3CCO4)n3cc(CN(C)C)nc23)n(C)n1 [Example 26, 8-(1,3-dimethyl-1H-pyrazol-5-yl)-2-((dimethylamino)methyl)-N-((5-fluoro-2,3-dihydrobenzofuran-4-yl)methyl)imidazo[1,2-c]pyrimidin-5-amine]",IC50,[1],500 to 2000 nM
"Cc1cc(-c2cnc(NCc3c(F)ccc4c3CCO4)n3cc(CO)nc23)n(C)n1 [Example 1, (8-(1,3-dimethyl-1H-pyrazol-5-yl)-5-(((5-fluoro-2,3-dihydrobenzofuran-4-yl)methyl)amino)imidazo[1,2-c]pyrimidin-2-yl)methanol]",IC50,[1],< 250 nM
same,IC50,[2],< 250 nM
"Cc1cc(-c2cnc(NCc3c(F)ccc4c3CCO4)n3cc(-c4nn[nH]n4)nc23)n(C)n1 [Example 43, 8-(1,3-dimethyl-1H-pyrazol-5-yl)-N-((5-fluoro-2,3-dihydrobenzofuran-4-yl)methyl)-2-(2H-tetrazol-5-yl)imidazo[1,2-c]pyrimidin-5-amine]",IC50,[1],< 250 nM
"Cn1nccc1-c1cnc(NCc2c(F)ccc3c2CCO3)n2cc(CO)nc12 [Example 6, (5-(((5-fluoro-2,3-dihydrobenzofuran-4-yl)methyl)amino)-8-(1-methyl-1H-pyrazol-5-yl)imidazo[1,2-c]pyrimidin-2-yl)methanol]",IC50,[1],250 to 500 nM
same,IC50,[3],< 250 nM
"OCc1cn2c(NCc3c(F)ccc4c3CCO4)ncc(-c3ccc(C4CC4)nc3)c2n1 [Example 4, (8-(6-cyclopropylpyridin-3-yl)-5-(((5-fluoro-2,3-dihydrobenzofuran-4-yl)methyl)amino)imidazo[1,2-c]pyrimidin-2-yl)methanol]",IC50,[1],500 to 2000 nM
same,IC50,[2],500 to 5000 nM
Cc1cc(-c2cnc(NCc3c(F)ccc4c3CCO4)n3cc(C(O)c4ccccc4)nc23)n(C)n1 (centres unmarked) [Example 8],IC50,[1],250 to 500 nM
"Cc1cc(-c2cnc(NCc3c(F)ccc4c3CCO4)n3cc(C(N)C(F)(F)F)nc23)n(C)n1 (centres unmarked) [Example 42, 2-(1-amino-2,2,2-trifluoroethyl)-8-(1,3-dimethyl-1H-pyrazol-5-yl)-N-((5-fluoro-2,3-dihydrobenzofuran-4-yl)methyl)imidazo[1,2-c]pyrimidin-5-amine]",IC50,[1],250 to 500 nM
"Cc1ncccc1-c1cnc(NCc2c(F)ccc3c2CCO3)n2cc(CO)nc12 [Example 3, (5-(((5-fluoro-2,3-dihydrobenzofuran-4-yl)methyl)amino)-8-(2-methylpyridin-3-yl)imidazo[1,2-c]pyrimidin-2-yl)methanol]",IC50,[1],500 to 2000 nM
same,IC50,[2],500 to 5000 nM
"COc1ccc(-c2cnc(NCc3c(F)ccc4c3CCO4)n3cc(CO)nc23)c(C)n1 [Example 5, (5-(((5-fluoro-2,3-dihydrobenzofuran-4-yl)methyl)amino)-8-(6-methoxy-2-methylpyridin-3-yl)imidazo[1,2-c]pyrimidin-2-yl)methanol]",IC50,[1],500 to 2000 nM
same,IC50,[2],250 to 500 nM
"CNCc1cn2c(NCc3c(F)ccc4c3CCO4)ncc(-c3cc(C)nn3C)c2n1 [Example 25, 8-(1,3-dimethyl-1H-pyrazol-5-yl)-N-((5-fluoro-2,3-dihydrobenzofuran-4-yl)methyl)-2-((methylamino)methyl)imidazo[1,2-c]pyrimidin-5-amine]",IC50,[1],250 to 500 nM
same,IC50,[2],250 to 500 nM
"Cc1cc(S(C)(=O)=O)ccc1-c1cnc(NCc2c(F)ccc3c2CCO3)n2cc(CO)nc12 [Example 2, (5-(((5-fluoro-2,3-dihydrobenzofuran-4-yl)methyl)amino)-8-(2-methyl-4-(methylsulfonyl)phenyl)imidazo[1,2-c]pyrimidin-2-yl)methanol]",IC50,[1],< 250 nM
same,IC50,[2],500 to 5000 nM
"NCc1cn2c(NCc3c(F)ccc4c3CCO4)ncc(-c3cccc(F)c3)c2n1 [Example 14, 2-(aminomethyl)-N-((5-fluoro-2,3-dihydrobenzofuran-4-yl)methyl)-8-(3-fluorophenyl)imidazo[1,2-c]pyrimidin-5-amine]",IC50,[1],250 to 500 nM
same,IC50,[2],500 to 5000 nM
